Measured values published in patent US20030087861A1, “Combined approach to treatment of cancer using a c-myc antisense oligomer” (priority 2001, published 2003).

How the values were obtained:
[1] = test system: Lewis lung carcinoma (LLC1) tumors; test: Lewis lung carcinoma (LLC1) subcutaneous tumor model, tumor area growth and tumor mass; type: in vivo, C57BL/6J mice; set-up: Tumor Growth Rate (TGR): unit not given beside the values; details: for Tumor Mass (gm ± STE): LLC1 tumor bearing mice, IP dosing per Table 2, combinations in alternating regimen (chemotherapy days 2-4, 14-16; PMO days 6-12, 18-23), mass at euthanization; for Tumor Growth Rate (TGR): linear regression of change in tumor area day 14 to 25, slope ± standard deviation, IP dosing per Table 2, combinations in alternating regimen; for % of Saline TGR: tumor growth rate relative to saline group, combinations in alternating regimen; for antitumor effect / tumor growth (in words): single agent, or staggered (alternating) regimen with the PMO after chemotherapy
Method: Examples are described in Smith et al., 2000. The model is based on the transplantation of Lewis lung cells (LLC1), a highly tumorigenic lung carcinoma cell line, into syngeneic […] mice. LLC1 produce discernable tumors by day 4 when 200,000 cells are transplanted subcutaneously onto the right flanks of C57-BL mice. Therapeutic efficacy was evaluated based on daily caliper measurements of tumor length and width and tumor weights at the end of 25 day studies. A 20 base PMO antisense to c-myc mRNA (AVI-4126, SEQ ID NO:1) was evaluated for efficacy in the model. […] AVI-4126 was also administered i.p. (300 μg/mouse/day) in combination with chemotherapy. Co-administration of cisplatin (83 μg/mouse/day) on days 2-4 and 13-15 with AVI-4126 on days 2-8 and 13-19 had no additional effect on tumor growth inhibition versus cisplatin alone (Example 1).
Tumor cells. The Lewis lung cell line (LLC1) used in the studies described herein was derived from the Lewis lung carcinoma established in 1951 by Dr. M. R. Lewis and has been utilized for the evaluation of cancer chemotherapeutic agents Mayo, 1972; Bertram et al., 1980). Lewis lung carcinoma cells (ATCC, Manassas, Va.) were maintained in DMEF-12 medium supplemented with 10% fetal bovine serum, penicillin (100 units/mL), streptomycin (100 μg/mL), and amphotericin (0.25 μg/mL) at 37° C. in a 5% CO2/95% air humidified incubator. Cells were harvested as an approximately 70% confluent culture of log growth phase at the time of transplant and were injected as a cell suspension in media at a concentration of 200,000 cells per 100 μl injection.
Syngeneic mice. C57BL/6J mice (Simonsen, Gilroy, Calif.) weighing 22 to 24 g were housed in sterile plastic cages at the Laboratory Animal Resources Facility at Oregon State University (OSU), Corvallis, Oreg. Mice were given access to rodent chow (Harlan Teklad, Madison, Wis.) and tap water ad libitum and exposed to 12 hour light/dark cycles. All animal protocols conformed to the ethical guidelines of the 1975 Declaration of Helsinki and were approved by the ‘Institutional Animal Care and Use Committee’ of OSU.
Statistical Analysis. All data are reported as the mean ±SEM were determined by the computer program InStat2 (GraphPad, San Diego). The p values were calculated by InStat2 using ANOVA and the Tukey multiple comparison test. Graphs, linear regression, and slopes were generated using Prism v2.0 (GraphPad).
Tumor studies with AVI-4126 and Chemotherapy Following a 5 day acclimation period, C57BL/6J mice (Simonsen, Gilroy, CA) cared for as set forth above, were anesthetized with isoflurane, shaved, and injected subcutaneously in the right rear flank with approximately 200,000 viable LLC1 cells (study day 0). Injection sites were monitored daily to ensure that solid, homogeneous tumor growth was consistently obtained 4 days after LLC1 cell injection. Chemotherapy injections were prepared fresh daily before i.p injection (see Table 1). All PMO's and cisplatin (Sigma, St. Louis, Mo.) were dissolved in sterile, apyrogenic saline (Sigma) adjusted to an injection volume of 0.1 ml. A Taxol stock solution (6 mg/ml in Cremophore EL and ethanol, Bristol Myers Squibb, Syracuse, N.Y.) was diluted to 1 mg/ml in 1× PBS prior to injection. Etoposide (Sigma) stock solutions were prepared by dissolving in 70% ethanol at 11 mg/ml followed by dilution with saline to a final concentration of 5 mg/ml. 5-FU (Calbiochem) was dissolved in saline at a concentration of 12.5 mg/ml.
Animals were treated as described. Therapeutic efficacy was evaluated based on daily measurement of tumor area (length x width, cm^2) with digital calipers and tumor mass determined at the time of euthanization. Mice in all studies were euthanized by asphyxiation with CO2 on the final day of PMO treatments. […]

[2] = test system: c-myc protein; test: Immunoblot analysis of c-myc protein in LLC1 tumor lysates; type: in vivo, mouse; details: for effect on c-myc levels in tumor tissue (in words): compared to saline
Method: Immunoblot analysis of c-myc protein. All antibodies were obtained from Santa Cruz Biotechnology (Santa Cruz, Calif.). Three-hundred micrograms of LLC1 protein lysate was analyzed on a 5% SDS/acrylamide stacking gel with a 12% v/v sodium dodecylsulfate (SDS)/acrylamide separating gel. Gels were blotted, probed, and visualized according to standard Western blotting protocols. Membranes were probed with rabbit anti-mouse c-myc polyclonal antibodies N-262 (sc-764) or C-19 (sc-788) diluted 1:2000 in blocking buffer (Genotech) followed by goat-anti rabbit HRP-conjugated antibody (sc-2054). The relative amount of c-myc and actin protein was visualized by ECLplus (Amersham, Piscataway, N.J.) and analyzed on a Kodak 440 Image Station using 1 D Image Analysis software (Kodak, Rochester N.Y.). Membranes were then soaked in stripping buffer (Genotech) for 20 minutes at 25° C. and reprobed with a 1:2000 dilution of goat anti-mouse β-actin polyclonal antibody (sc-1616), which served as a protein loading control, followed by donkey anti-goat HRP-conjugated antibody (sc-2056).
An initial study was performed to determine AVI-4126 levels in the tumor and to evaluate sequence specific inhibition of c-myc protein levels. Tumor bearing mice 24 days post LLC1 transplant were given injections of either saline, AVI-4126 or scrambled control (100 μg/mouse IP). Tumors were excised 4 hours later and evaluated for AVI-4126 and analyzed by immunoblot for c-myc protein, as described below.
Animals were treated as described. Therapeutic efficacy was evaluated based on daily measurement of tumor area (length x width, cm^2) with digital calipers and tumor mass determined at the time of euthanization. Mice in all studies were euthanized by asphyxiation with CO2 on the final day of PMO treatments. Tumors were immediately removed, weighed and approximately 0.25 g tumor tissue was homogenized in 1.0 ml Tissue-PE lysis buffer (Genotech, St. Louis, Mo.) containing protease inhibitor cocktail tablets (Complete™ Mini EDTA-free, Boehringer-Mannheim) which were dissolved in the lysis buffer 30 minutes before tissue homogenization. Lysates were centrifuged at 15,000× g for 15 minutes at 4° C. and 150 μl aliquots of supernatant were combined 1:1 with electrophoresis sample buffer and boiled at 100° C. for 5 minutes.

[3] = set-up: species or system C57BL/6J mice; details: mouse, in vivo, ip
Method: HPLC detection of AVI-4126 in LLC1 tumor tissue. The presence of AVI-4126 in tumor tissue lysates (prepared 4 hours after a single injection of 100 μg of AVI-4126 into tumor bearing mice) was determined via a 5′-flouresceinyl DNA:AVI-4126 (FDNA:AVI-4126) duplex detection method developed at AVI BioPharma (Corvallis, Oreg.). Briefly, 500 ng of internal standard (10 μl of a […] of 0.025M Tris buffer, pH=8) of a 15mer internal PMO standard complementary to the FDNA probe (5′-GAGGGGCATCGTCGC-3′ (SEQ ID NO: 14)) was added to each tumor tissue lysate. The lysate was combined with 250 μl methanol and mixed thoroughly. The sample was centrifuged 10 minutes at 15,000× g and the supernatant was removed and heated to 70° C. for g 10 minutes. […]
The entire 100 μl sample was then analyzed for the presence of FDNA:AVI-4126 duplex using reverse phase HPLC with fluorescence detection. The sample was injected into a Dionex DNAPac PA-100 column (4×250) using a Varian HPLC pump (model 9010 inert) equipped with a fluorescence detector and Al-200 autosampler (100 μl injector loop volume). […] The pump gradient program was 90% A+10% B (0 min) and 55% A+45% B (20 min.) at a flow rate of 1.5 ml/min with fluorescence detection at a 494 nm (excitation) and 518 nm emission wavelengths. […]

[4] = ICP-MS detection and quantitation of platinum/cisplatin in LLC1 tumor tissue; type: in vivo, C57BL/6J mice; details: data not shown
Method: ICP-MS Detection and Quantitation of platinum/cisplatin. A 200 μL aliquot of tissue lysate (40 mg of LLC1 tumor tissue) was dissolved in 1.33 mL of aqua regia followed by a 10 fold dilution. The samples were then analyzed by ICP-MS technique for the presence of Pt according to the method of Long et al (16) by Anatek Labs (Moscow, ID).

[5] = single injection 100 μg/mouse IP, tumors excised 4 hours later, FIG. 5A

Molecule	Tumor Mass (gm ± STE) [1]	Tumor Growth Rate (TGR) [1]	% of Saline TGR [1]	further results
CC(=O)O[C@H]1C(=O)[C@@]2(C)[C@H]([C@H](OC(=O)c3ccccc3)[C@]3(O)C[C@H](OC(=O)[C@H](O)[C@@H](NC(=O)c4ccccc4)c4ccccc4)C(C)=C1C3(C)C)[C@]1(OC(C)=O)CO[C@@H]1C[C@@H]2O [Taxol, Paclitaxel]	1.827 ± 0.210 gm	0.234 ± 0.023	114.7%	–
N.N.[Cl][Pt][Cl] [cisplatin, cis-diamminedichloroplatinum]	0.550 ± 0.081 gm	0.101 ± 0.011	49.5%	necropsy appearance of tumors ([1]; cisplatin alone, and cisplatin plus co-administered AVI-4126): highly invasive and vascularized; antitumor effect / tumor growth (in words) [1]: significantly lower; effect on c-myc levels in tumor tissue (in words) [2]: no statistical difference
COc1cc([C@@H]2c3cc4c(cc3[C@@H](O[C@@H]3O[C@@H]5CO[C@@H](C)O[C@H]5[C@H](O)[C@H]3O)[C@H]3COC(=O)[C@H]23)OCO4)cc(OC)c1O [etoposide]	0.970 ± 0.244 gm	0.153 ± 0.025	75.0%	–
AVI-4126: 20 base PMO antisense to c-myc translation start site: ACGTTGAGGGGCATCGTCGC (antisense ACGTTGAGGGGCATCGTCGC; all phosphorodiamidate morpholino (PMO))	1.788 ± 0.651 gm	0.212 ± 0.031	103.9%	antitumor effect / tumor growth (in words) [1]: failed to significantly reduce tumor growth; inhibition of c-myc levels compared to saline control, n-terminal antibody ([2]; band intensity normalized to β-actin, AVI-4126 alone 300 μg/mouse/day IP, FIG. 6A): 74%; inhibition of c-myc levels compared to saline control, c-terminal antibody ([2]; band intensity normalized to β-actin, AVI-4126 alone 300 μg/mouse/day IP, FIG. 6B): 61%; reduction of c-myc levels relative to saline control [2, 5]: 77%; reduction of c-myc levels relative to scrambled PMO control [2, 5]: 63%; FDNA:AVI-4126 duplex fluorescence peak in tumor tissue lysate [3]: readily detectable; degradation of AVI-4126 in tumor tissue [3]: No evidence of degradation; effect of AVI-4126 administration on platinum levels in tumor tissue [4]: did not effect platinum levels
RAD51AS: control PMO, mouse RAD51 sequence: CAAGCTGCATTTGCATAGCCAT (antisense CAAGCTGCATTTGCATAGCCAT; all phosphorodiamidate morpholino (PMO))	1.193 ± 0.166 gm	0.198 ± 0.017	97.1%	–
p21AS: control PMO, mouse p21 sequence: CATCACCAGGATTGGACATGG (antisense CATCACCAGGATTGGACATGG; all phosphorodiamidate morpholino (PMO))	1.260 ± 0.389 gm	0.184 ± 0.030	90.2%	–
scrambled control PMO: c-myc antisense scramble control PMO: ACTGTGAGGGCGATCGCTGC (ACTGTGAGGGCGATCGCTGC; all phosphorodiamidate morpholino (PMO))	–	–	–	effect on c-myc levels in tumor tissue (in words) [2]: no effect
